# Laboratory results reported in patent publication US6271242A, “Method for treating cancer using a tyrosine protein kinase inhibitor” (Bristol-Myers Squibb Co., priority 1992, dated 2001).
# “Also recorded” adds a separate entry of the source.
# Columns and labels:
# [1] = tested on: gp145^trkB; test: BDNF-induced tyrosine phosphorylation of gp145^trkB in Z52-17 cells (Western blot); type: cell-based; conditions: 100 nM K252a, 100 ng/ml BDNF
# [2] = tested on: Z82-432 cells; test: Reversion of transformed phenotype, gp145^trkB + BDNF transformed NIH3T3 cells; type: cell-based
# [3] = tested on: 106-632 cells; test: Reversion of morphologic transformation, trk-transformed NIH3T3 cells; type: cell-based; conditions: 100 nM K252a, as little as 36 hours
# [4] = tested on: NIH3T3 cells co-transfected with pDM69 (gp140^trk) and pLTRSNGF (NGF); test: Focus formation of NIH3T3 cells co-transfected with gp140^trk and NGF plasmids; type: cell-based; conditions: 100 nM K252a
# [5] = tested on: PDGF receptor; test: PDGF-induced tyrosine phosphorylation of PDGF receptor in NIH3T3 cells (Western blot); type: cell-based; conditions: 100 nM K252a, 100 ng/ml PDGF
# [6] = tested on: Z82-711 cells; test: Reversion of transformed phenotype, gp145^trkC + NT-3 transformed NIH3T3 cells; type: cell-based
# [7] = tested on: gp145^trkC; test: NT-3-induced tyrosine phosphorylation of gp145^trkC in R4-31 cells (Western blot); type: cell-based; conditions: 100 nM K252a, 100 ng/ml NT-3, R4-31 (RA-31) cells
# [8] = tested on: NIH3T3 cells co-transfected with pFRK44 (gp145^trkB) and pLL42 (BDNF); test: Focus formation of NIH3T3 cells co-transfected with gp145^trkB and BDNF plasmids; type: cell-based; conditions: 100 nM K252a
# [9] = tested on: Z99-541 cells; test: Reversion of transformed phenotype, gp140^trk + NGF transformed NIH3T3 cells; type: cell-based
# [10] = Morphology and toxicity, v-src-transformed NIH3T3 cells; type: cell-based; conditions: mouse, v-src transformed nih3t3 cells; v-src transformed cells, no signs of morphologic reversion; data not shown; read-out: concentration at which toxic effect appears
# [11] = tested on: C74-321 cells; test: as above; type: cell-based
# [12] = tested on: NIH3T3 cells; test: Toxicity and growth of untransfected NIH3T3 and NIH3T3-derived cells
# [13] = tested on: PC12 cells; test: Proliferation of PC12 cells; type: cell-based, rat; conditions: submicromolar concentrations; data not shown
# [14] = tested on: B38-941 cells; test: Reversion of morphologic transformation, trk5-transformed NIH3T3 cells; type: cell-based; conditions: 100 nM K252a, as little as 36 hours
# [15] = tested on: pp60^v-src; test: Tyrosine phosphorylation of pp60^v-src in C74-321 cells (Western blot); type: cell-based; conditions: concentrations as high as 1 μM
# [16] = tested on: PC12 cells; test: FGF-induced neurite formation of PC12 cells; type: cell-based, rat; conditions: concentrations as high as 300 nM; 50 ng/ml acidic and basic FGFs, three days
# [17] = tested on: human EGF receptor; test: EGF-induced tyrosine phosphorylation of EGF receptor in F19-91 cells (Western blot); type: cell-based; conditions: 100 nM K252a, 100 ng/ml EGF
# [18] = Morphology and toxicity, v-fms-transformed NIH3T3 cells; type: cell-based; conditions: mouse, v-fms transformed nih3t3 cells; v-fms transformed cells, no signs of morphologic reversion; data not shown; read-out: concentration at which toxic effect appears
# [19] = tested on: C51-642 cells; test: as above; type: cell-based
# [20] = tested on: NIH3T3 cells co-transfected with pFL20 (gp145^trkC) and pLL43 (NT-3); test: Focus formation of NIH3T3 cells co-transfected with gp145^trkC and NT-3 plasmids; type: cell-based; conditions: 100 nM K252a; pFL20 (gp145^trkC) + pLL43 (NT-3)
# [21] = tested on: PC12 cells; test: NGF-induced neuronal differentiation (neurite outgrowth) of PC12 cells; type: cell-based; conditions: Rattus norvegicus, PC-12, 72 h; 50 ng/ml NGF, three days; read-out: IC50, block of appearance of neuritic processes in PC12 cells exposed to NGF
# [22] = tested on: gp140^trk; type: cell-based, rat; conditions: 100 nM K252a, 100 ng/ml NGF, PC12 cells
# [23] = tested on: pp60^v-src; test: In vitro tyrosine protein kinase assay of pp60^v-src immunoprecipitates (C74-321 cells); type: biochemical; conditions: concentrations as high as 10 μM
smiles,measurement,setting,value
"COC(=O)[C@@]1(O)C[C@H]2O[C@]1(C)n1c3ccccc3c3c4c(c5c6ccccc6n2c5c31)C(=O)NC4 (single isomer, unassigned) [K252a, (8R*,9S*,11S*)-(-)-9-hydroxy-9-methoxycarbonyl-8-methyl-2,3,9,10-tetrahydro-8,11-epoxy-1H,8H,11H-2,7b,11a-triazadibenzo(a,g) cycloocta(c,d,e)triinden-1-one]",phosphorylation on tyrosine residues of ligand-activated gp145^trkB,[1],completely abolished
same,reversion of transformed phenotype,"[2]; 30 nM K252a, data not shown",much more limited effect
same,reversion of transformed phenotype,"[2]; 100 nM K252a, 2 to 4 days",completely reverted
same,reversion of transformed phenotype,[3],completely reverted
same,Transforming Activity,[4],0 Foci per 10^5 cells
same,phosphorylation on tyrosine residues of the PDGF receptor,[5],no effect
same,reversion of transformed phenotype,"[6]; 30 nM K252a, data not shown",much more limited effect
same,reversion of transformed phenotype,"[6]; 100 nM K252a, 2 to 4 days",completely reverted
same,phosphorylation on tyrosine residues of ligand-activated gp145^trkC,[7],completely abolished
same,Transforming Activity,[8],0 Foci per 10^5 cells
same,reversion of transformed phenotype,"[9]; 30 nM K252a, data not shown",much more limited effect
same,reversion of transformed phenotype,"[9]; 100 nM K252a, 2 to 4 days",completely reverted
same,MCC,[10],~1000 nM
same,effect on morphology of v-src transformed cells,[11],no effect
same,effect on transformed phenotype of v-src cells,[11]; concentrations as high as 1 μM,no effect
same,effect on growth properties / proliferation rate of the cells,[12]; 300 nM or lower,not observed; also recorded: no significant effect
same,detectable toxic effects,"[12]; concentrations as high as 300 nM, NIH3T3-derived cells",nor elicit any detectable toxic effects
same,toxicity to cells,"[12]; micromolar concentrations, particularly untransfected NIH3T3 cells, data not shown",considerably toxic
same,inhibitory effect on proliferation of PC12 cells,[13],did not have a significant inhibitory effect
same,reversion of transformed phenotype,[14],completely reverted
same,inhibitory effect on levels of tyrosine phosphorylation of pp60^v-src,[15],did not have any inhibitory effect
same,effect on induction of neurite formation by FGF,[16],no detectable effect
same,phosphorylation on tyrosine residues of the EGF receptor,[17],no effect
same,MCC,[18],~1000 nM
same,effect on morphology of v-fms transformed cells,[19],no effect
same,effect on transformed phenotype of v-fms cells,[19]; concentrations as high as 1 μM,no effect
same,Transforming Activity,[20],0 Foci per 10^5 cells
same,IC50,[21],~40 nM
same,NGF-induced phosphorylation of gp140^trk on tyrosine residues,[22],completely abolished
same,inhibitory effect on catalytic activity of pp60^v-src,[23],did not have any significant inhibitory effect
